Reference: ChEMBL document CHEMBL3259797, “Radiosyntheses and in vivo evaluation of carbon-11 PET tracers for PDE10A in the brain of rodent and nonhuman primate” (Bioorg Med Chem, 2014)

Columns and labels:
[1] = Drug metabolism in iv dosed cynomolgus monkey plasma measured at 60 mins post-injection by HPLC analysis; assay type: ADME, organism-based, Macaca fascicularis; conditions: read-out: Drug metabolism
Muscle tissue [2] = experiment: Biodistribution in Sprague-Dawley rat muscle at 14.8 to 18.5 MBq, iv measured at 5 mins post-injection by gamma counting analysis; assay type: ADME, organism-based; conditions: in vivo
Brain [3] = experiment: Biodistribution in Sprague-Dawley rat brain at 14.8 to 18.5 MBq, iv measured at 5 mins post-injection by gamma counting analysis; assay type: ADME, organism-based; conditions: in vivo
Blood [4] = experiment: Biodistribution in Sprague-Dawley rat blood at 14.8 to 18.5 MBq, iv measured at 30 mins post-injection by gamma counting analysis; assay type: ADME, organism-based; conditions: in vivo, 0.5 h
Kidney = experiment: Biodistribution in Sprague-Dawley rat kidney at 14.8 to 18.5 MBq, iv measured at 30 mins post-injection by gamma counting analysis; assay type: ADME, organism-based; conditions: in vivo, 0.5 h
Muscle tissue [5] = experiment: Biodistribution in Sprague-Dawley rat muscle at 14.8 to 18.5 MBq, iv measured at 30 mins post-injection by gamma counting analysis; assay type: ADME, organism-based; conditions: in vivo, 0.5 h
Heart = experiment: Biodistribution in Sprague-Dawley rat heart at 14.8 to 18.5 MBq, iv measured at 30 mins post-injection by gamma counting analysis; assay type: ADME, organism-based; conditions: in vivo, 0.5 h
Cerebellum = experiment: Biodistribution in Sprague-Dawley rat cerebellum at 14.8 to 18.5 MBq, iv measured at 30 mins post-injection by gamma counting analysis; assay type: ADME, organism-based; conditions: in vivo, 0.5 h
Brain [6] = experiment: Biodistribution in Sprague-Dawley rat brain at 14.8 to 18.5 MBq, iv measured at 30 mins post-injection by gamma counting analysis; assay type: ADME, organism-based; conditions: in vivo, 0.5 h
Blood [7] = experiment: Biodistribution in Sprague-Dawley rat blood at 14.8 to 18.5 MBq, iv measured at 60 mins post-injection by gamma counting analysis; assay type: ADME, organism-based; conditions: in vivo, 1 h
Lung = experiment: Biodistribution in Sprague-Dawley rat lung at 14.8 to 18.5 MBq, iv measured at 60 mins post-injection by gamma counting analysis; assay type: ADME, organism-based; conditions: in vivo, 1 h
Liver [8] = experiment: Biodistribution in Sprague-Dawley rat liver at 14.8 to 18.5 MBq, iv measured at 60 mins post-injection by gamma counting analysis; assay type: ADME, organism-based; conditions: in vivo, 1 h
Muscle tissue [9] = experiment: Biodistribution in Sprague-Dawley rat muscle at 14.8 to 18.5 MBq, iv measured at 60 mins post-injection by gamma counting analysis; assay type: ADME, organism-based; conditions: in vivo, 1 h
Brain [10] = experiment: Biodistribution in Sprague-Dawley rat brain at 14.8 to 18.5 MBq, iv measured at 60 mins post-injection by gamma counting analysis; assay type: ADME, organism-based; conditions: in vivo, 1 h
Liver [11] = experiment: Biodistribution in Sprague-Dawley rat liver at 14.8 to 18.5 MBq, iv treated with MP-10 for 5 mins prior to compound administration measured at 30 mins post-injection by gamma counting analysis; assay type: ADME, organism-based; conditions: in vivo, 0.5 h
Frontal cortex = experiment: Biodistribution in cynomolgus monkey frontal cortex at 260 to 370 MBq, iv measured at 20 to 100 mins post-injection by microPET analysis; assay type: ADME, organism-based, Macaca fascicularis; conditions: in vivo
Occipital cortex = experiment: Biodistribution in cynomolgus monkey occipital cortex at 260 to 370 MBq, iv measured at 20 to 100 mins post-injection by microPET analysis; assay type: ADME, organism-based, Macaca fascicularis; conditions: in vivo
[12] = Biodistribution in cynomolgus monkey white matter at 260 to 370 MBq, iv measured at 20 to 100 mins post-injection by microPET analysis; assay type: ADME, organism-based, Macaca fascicularis; conditions: in vivo
[13] = Biodistribution in cynomolgus monkey striatum at 260 to 370 MBq, iv measured at 25 mins post-injection by microPET analysis; assay type: ADME, organism-based, Macaca fascicularis; conditions: in vivo
Nucleic Acid [14] = experiment: Ratio of drug level in striatum to cerebellum in cynomolgus monkey at 260 to 370 MBq, iv measured at 25 mins post-injection by microPET analysis; assay type: ADME, organism-based, Macaca fascicularis; conditions: in vivo
Plasma [15] = experiment: Drug metabolism in iv dosed cynomolgus monkey plasma assessed as compound remaining by HPLC analysis; assay type: ADME, organism-based, Macaca fascicularis; conditions: in vivo
[16] = Drug metabolism in iv dosed cynomolgus monkey plasma assessed as compound remaining measured at 30 mins post-injection by HPLC analysis; assay type: ADME, organism-based, Macaca fascicularis; conditions: read-out: Stability
[17] = Drug metabolism in iv dosed cynomolgus monkey plasma assessed as compound remaining measured at 60 mins post-injection by HPLC analysis; assay type: ADME, organism-based, Macaca fascicularis; conditions: read-out: Stability
Nucleic Acid [18] = experiment: Ratio of drug level in striatum to cerebellum in cynomolgus monkey at 260 to 370 MBq, iv measured at 80 mins post-injection by microPET analysis; assay type: ADME, organism-based, Macaca fascicularis; conditions: in vivo
[19] = Biodistribution in cynomolgus monkey striatum at 260 to 370 MBq, iv measured at 30 mins post-injection by microPET analysis; assay type: ADME, organism-based, Macaca fascicularis; conditions: in vivo, 0.5 h
Nucleic Acid [20] = experiment: Ratio of drug level in striatum to cerebellum in cynomolgus monkey at 260 to 370 MBq, iv measured at 30 mins post-injection by microPET analysis; assay type: ADME, organism-based, Macaca fascicularis; conditions: in vivo, 0.5 h
[21] = Drug metabolism in iv dosed cynomolgus monkey plasma assessed as compound remaining measured at 2 mins post-injection by HPLC analysis; assay type: ADME, organism-based, Macaca fascicularis; conditions: read-out: Stability
Plasma [22] = experiment: Drug recovery in iv dosed cynomolgus monkey plasma measured at 30 mins post-injection by HPLC analysis; assay type: ADME, organism-based, Macaca fascicularis; conditions: in vivo, 0.5 h
[23] = Drug recovery in iv dosed cynomolgus monkey arterial blood measured at 60 mins post-injection by HPLC analysis; assay type: ADME, organism-based, Macaca fascicularis; conditions: in vivo, 1 h
[24] = Drug recovery in iv dosed cynomolgus monkey arterial blood assessed as radiometabolite level measured at 60 mins post-injection by HPLC analysis; assay type: ADME, organism-based, Macaca fascicularis; conditions: in vivo, 1 h

SMILES: Cn1cc(-c2ccncc2)c(-c2ccc(OCc3cc(O[11CH3])c4ccccc4n3)cc2)n1
- metabolised at 1 h [1]: 42%
- Drug uptake (Muscle tissue [2]): 0.258 % ID/g
- Drug uptake (Brain [3]): 0.21 % ID/g
- Drug uptake (Blood [4]): 0.192 % ID/g
- Drug uptake (Kidney): 1.294 % ID/g
- Drug uptake (Muscle tissue [5]): 0.133 % ID/g
- Drug uptake (Heart): 0.187 % ID/g
- Drug uptake (Cerebellum): 0.066 % ID/g
- Drug uptake (Brain [6]): 0.087 % ID/g
- Drug uptake (Blood [7]): 0.152 % ID/g
- Drug uptake (Lung): 0.163 % ID/g
- Drug uptake (Liver [8]): 8.941 % ID/g
- Drug uptake (Muscle tissue [9]): 0.084 % ID/g
- Drug uptake (Brain [10]): 0.057 % ID/g
- Drug uptake (Liver [11]): 4.723 % ID/g
- Drug uptake (Frontal cortex): Active
- Drug uptake (Occipital cortex): Active
- Drug uptake [12]: Active
- Drug uptake [13]: Active
- Ratio (Nucleic Acid [14]): 2.7
- Stability (Plasma [15]): 85%
- remaining at 0.5 h [16]: 60%
- remaining at 1 h [17]: 42%

SMILES: Cn1cc(-c2ccncc2)c(-c2ccc(OCc3nc4ccccc4cc3O[11CH3])cc2)n1
- Ratio (Nucleic Acid [18]): 4.5
- Drug uptake (Muscle tissue [2]): 0.412 % ID/g
- Drug uptake (Brain [3]): 0.231 % ID/g
- Drug uptake (Blood [4]): 0.321 % ID/g
- Drug uptake (Kidney): 1.647 % ID/g
- Drug uptake (Muscle tissue [5]): 0.244 % ID/g
- Drug uptake (Heart): 0.296 % ID/g
- Drug uptake (Cerebellum): 0.097 % ID/g
- Drug uptake (Brain [6]): 0.133 % ID/g
- Drug uptake (Blood [7]): 0.275 % ID/g
- Drug uptake (Lung): 0.299 % ID/g
- Drug uptake (Liver [8]): 6.398 % ID/g
- Drug uptake (Muscle tissue [9]): 0.142 % ID/g
- Drug uptake (Brain [10]): 0.095 % ID/g
- Drug uptake (Liver [11]): 5.781 % ID/g
- Drug uptake (Frontal cortex): Active
- Drug uptake (Occipital cortex): Active
- Drug uptake [12]: Active
- SUV [19]: 1.8
- Ratio (Nucleic Acid [20]): 3.5
- remaining at 2 min [21]: 97%
- Drug recovery (Plasma [22]): 82%
- Drug recovery [23]: 65%
- Drug recovery [24]: 30%
